Patent publication US20230265151A1, “GIP/GLP1 CO-AGONIST COMPOUNDS” (priority 2020, published 2023)
Like-named read-outs stand apart in the source and are kept apart here.

Key:
Type in all cases: cell-based
[1] = molecular target: T1, hGCGR (Homo sapiens, UniProt P47871); test: Functional cAMP formation (HTRF) in HEK-293 clonal cells expressing hGCGR, 0.1% bovine casein, without or with 1.0% human serum albumin; conditions: cAMP, 37° C.
T1 construct: expressed in transfected cells
In short: (§1)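 Readings of the HTRF 665/620 nm ratio, which falls as cAMP rises, were converted to nM cAMP using a standard curve after 30 min peptide exposure at 37° C.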

[2] = molecular target: hGLP-1R (Homo sapiens, UniProt P43220); test: Functional cAMP formation (HTRF) in HEK-293 clonal cells expressing hGLP-1R, 0.1% bovine casein, without or with 1.0% human serum albumin; design: expressed in transfected cells; conditions: for Emax: percent of maximal response to GLP-1(7-36)NH2; for EC50: cAMP, 0.1% bovine casein (no human serum albumin), geometric mean
In short: as §1

[3] = molecular target: T2, hGIPR (Homo sapiens, UniProt P48546); test: Functional cAMP formation (HTRF) in HEK-293 clonal cells expressing hGIPR, 0.1% bovine casein, without or with 1.0% human serum albumin; conditions: for Emax: percent of maximal response to GIP(1-42)NH2; for EC50: cAMP
T2 construct: expressed in transfected cells
T2 sequence (P48546 22-466): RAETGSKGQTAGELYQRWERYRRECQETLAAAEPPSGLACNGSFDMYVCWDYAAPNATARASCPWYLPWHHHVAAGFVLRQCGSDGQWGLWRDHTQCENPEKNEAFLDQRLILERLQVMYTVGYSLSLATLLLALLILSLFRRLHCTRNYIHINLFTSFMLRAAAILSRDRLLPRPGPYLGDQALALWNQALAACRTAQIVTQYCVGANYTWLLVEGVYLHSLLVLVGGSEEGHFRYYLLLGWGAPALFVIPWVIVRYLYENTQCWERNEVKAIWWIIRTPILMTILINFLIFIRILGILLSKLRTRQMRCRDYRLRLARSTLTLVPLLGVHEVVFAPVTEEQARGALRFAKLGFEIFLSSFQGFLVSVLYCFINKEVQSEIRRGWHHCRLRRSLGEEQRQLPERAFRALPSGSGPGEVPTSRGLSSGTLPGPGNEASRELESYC
In short: as §1

[4] = 0.1% bovine casein (no human serum albumin), geometric mean, read-out: hGCGR EC50, nM (SEM, n)
[5] = 0.1% bovine casein and 1.0% human serum albumin, geometric mean (SEM, n), read-out: hGCGR EC50, nM (SEM, n)
[6] = HEK293, cAMP, 37° C., 0.1% bovine casein, arithmetic mean, read-out: hGLP-1R Emax, % ± SEM
[7] = 37° C., read-out: hGLP-1R EC50, nM (SEM, n)
[8] = HEK293, cAMP, 37° C., 0.1% bovine casein and 1.0% human serum albumin, read-out: hGIPR Emax, % ± SEM
[9] = 37° C., 0.1% bovine casein (no human serum albumin), geometric mean, read-out: hGIPR EC50, nM (SEM, n)
[10] = hGCGR EC50, nM (SEM, n), 0.1% bovine casein (no human serum albumin), geometric mean
[11] = hGCGR EC50, nM (SEM, n), 0.1% bovine casein and 1.0% human serum albumin, geometric mean (SEM, n)
[12] = HEK293, read-out: hGLP-1R Emax, % ± SEM, cAMP, 37° C., 0.1% bovine casein, arithmetic mean
[13] = hGLP-1R EC50, nM (SEM, n), 37° C.
[14] = HEK293, read-out: hGIPR Emax, % ± SEM, cAMP, 37° C., 0.1% bovine casein and 1.0% human serum albumin
[15] = hGIPR EC50, nM (SEM, n), 37° C., 0.1% bovine casein (no human serum albumin), geometric mean

Chain of hGLP-1R (P43220 24-463): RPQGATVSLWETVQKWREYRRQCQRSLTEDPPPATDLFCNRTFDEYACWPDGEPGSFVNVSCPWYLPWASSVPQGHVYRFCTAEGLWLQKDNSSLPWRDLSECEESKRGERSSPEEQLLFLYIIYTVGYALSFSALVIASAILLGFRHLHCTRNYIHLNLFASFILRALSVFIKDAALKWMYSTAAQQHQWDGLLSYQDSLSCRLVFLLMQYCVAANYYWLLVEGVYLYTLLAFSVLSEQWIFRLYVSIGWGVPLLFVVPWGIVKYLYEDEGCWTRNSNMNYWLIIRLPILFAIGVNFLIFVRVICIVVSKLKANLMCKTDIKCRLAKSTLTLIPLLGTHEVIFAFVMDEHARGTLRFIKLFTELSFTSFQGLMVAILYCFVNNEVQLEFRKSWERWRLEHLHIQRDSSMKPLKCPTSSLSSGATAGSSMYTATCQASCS
T1 sequence (P47871 26-477): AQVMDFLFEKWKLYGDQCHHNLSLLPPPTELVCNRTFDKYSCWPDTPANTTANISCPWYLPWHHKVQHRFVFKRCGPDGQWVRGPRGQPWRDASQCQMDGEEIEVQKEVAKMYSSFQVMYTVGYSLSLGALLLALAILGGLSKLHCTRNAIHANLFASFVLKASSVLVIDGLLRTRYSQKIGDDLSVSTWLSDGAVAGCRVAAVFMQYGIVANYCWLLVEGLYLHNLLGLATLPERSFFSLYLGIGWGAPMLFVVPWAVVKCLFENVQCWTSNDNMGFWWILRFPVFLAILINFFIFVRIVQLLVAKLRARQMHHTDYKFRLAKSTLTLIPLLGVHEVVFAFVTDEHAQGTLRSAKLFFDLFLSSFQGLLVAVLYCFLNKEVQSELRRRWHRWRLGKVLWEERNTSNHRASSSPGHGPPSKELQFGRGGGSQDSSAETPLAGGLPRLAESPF

SMILES	EC50 [1, 4]	EC50 [1, 5]	Emax [2, 6]	EC50 [2, 7]	Emax [3, 8]	EC50 [3, 9]	EC50 [1, 10]	EC50 [1, 11]	Emax [2, 12]	EC50 [2, 13]	Emax [3, 14]	EC50 [3, 15]	Emax ([2]; HEK293, read-out: hGLP-1R Emax, % ± SEM, cAMP, 37° C., 0.1% bovine casein and 1.0% human serum albumin)	EC50 ([3]; hGIPR EC50, nM (SEM, n), 37° C., 0.1% bovine casein and 1.0% human serum albumin, geometric mean (SEM, n))	Emax ([2]; HEK293, cAMP, 37° C., 0.1% bovine casein and 1.0% human serum albumin, read-out: hGLP-1R Emax, % ± SEM)	EC50 ([3]; 37° C., 0.1% bovine casein and 1.0% human serum albumin, geometric mean (SEM, n), read-out: hGIPR EC50, nM (SEM, n))
CC[C@H](C)[C@H](NC(=O)[C@H](CC(C)C)NC(=O)[C@](C)(Cc1ccc(O)cc1)NC(=O)[C@H](CCCCNC(=O)CCCCCCCNC(=O)COCCOCCNC(=O)CC[C@H](NC(=O)CCCCCCCCCCCCC(=O)O)C(=O)O)NC(=O)[C@@H](NC(=O)[C@H](Cc1ccccc1)NC(=O)[C@H](CCCN)NC(=O)C(C)(C)NC(=O)[C@H](CCC(N)=O)NC(=O)[C@H](C)NC(=O)[C@H](CCC(N)=O)NC(=O)[C@H](CCCN)NC(=O)[C@H](CC(=O)O)NC(=O)[C@H](CC(C)C)NC(=O)[C@](C)(CC(C)C)NC(=O)[C@@H](NC(=O)C(C)(C)NC(=O)[C@H](Cc1ccncc1)NC(=O)[C@H](CC(=O)O)NC(=O)[C@H](CO)NC(=O)[C@@H](NC(=O)[C@](C)(Cc1ccccc1F)NC(=O)[C@@H](NC(=O)CNC(=O)[C@H](CCC(=O)O)NC(=O)C(C)(C)NC(=O)[C@@H](N)Cc1ccc(O)cc1)[C@@H](C)O)[C@@H](C)O)[C@@H](C)CC)[C@@H](C)CC)C(=O)N[C@@H](CCCCNC(=O)CCCCCCCNC(=O)COCCOCCNC(=O)CC[C@H](NC(=O)CCCCCCCCCCCCC(=O)O)C(=O)O)C(=O)NCC(=O)NCC(=O)N1CCC[C@H]1C(=O)N[C@@H](CO)C(=O)N[C@@H](CO)C(=O)NCC(=O)N[C@@H](C)C(=O)N1CCC[C@H]1C(=O)N1CCC[C@H]1C(=O)N1CCC[C@H]1C(=O)N[C@@H](CO)C(N)=O [Example 452]	> 9950 nM	> 9950 nM	117%	0.259 nM	100%	0.0192 nM										
CC[C@H](C)[C@H](NC(=O)[C@H](CC(C)C)NC(=O)[C@](C)(Cc1ccc(O)cc1)NC(=O)[C@H](CCCCNC(=O)COCCOCCNC(=O)CCCCCCCNC(=O)CC[C@H](NC(=O)CCCCCCCCCOc1ccc(C(=O)O)cc1)C(=O)O)NC(=O)[C@@H](NC(=O)[C@H](Cc1ccccc1)NC(=O)[C@H](CCCN)NC(=O)C(C)(C)NC(=O)[C@H](CCC(N)=O)NC(=O)[C@H](C)NC(=O)[C@H](CCC(N)=O)NC(=O)[C@H](CCCN)NC(=O)[C@H](CC(=O)O)NC(=O)[C@H](CC(C)C)NC(=O)[C@](C)(CC(C)C)NC(=O)[C@@H](NC(=O)C(C)(C)NC(=O)[C@H](Cc1ccncc1)NC(=O)[C@H](CC(=O)O)NC(=O)[C@H](CO)NC(=O)[C@@H](NC(=O)[C@](C)(Cc1ccccc1F)NC(=O)[C@@H](NC(=O)CNC(=O)[C@H](CCC(=O)O)NC(=O)C(C)(C)NC(=O)[C@@H](N)Cc1ccc(O)cc1)[C@@H](C)O)[C@@H](C)O)[C@@H](C)CC)[C@@H](C)CC)C(=O)N[C@@H](CCCCNC(=O)COCCOCCNC(=O)CCCCCCCNC(=O)CC[C@H](NC(=O)CCCCCCCCCOc1ccc(C(=O)O)cc1)C(=O)O)C(=O)NCC(=O)NCC(=O)N1CCC[C@H]1C(=O)N[C@@H](CO)C(=O)N[C@@H](CO)C(=O)NCC(=O)N[C@@H](C)C(=O)N1CCC[C@H]1C(=O)N1CCC[C@H]1C(=O)N1CCC[C@H]1C(=O)N[C@@H](CO)C(N)=O [Example 454]							> 9950 nM	> 9950 nM	114%	0.266 nM	91.5%	0.0202 nM				
CC[C@H](C)[C@H](NC(=O)[C@H](CC(C)C)NC(=O)[C@](C)(Cc1ccc(O)cc1)NC(=O)[C@H](CCCCNC(=O)CCCCCCCNC(=O)COCCOCCNC(=O)CC[C@H](NC(=O)CCCCCCCCCOc1ccc(C(=O)O)cc1)C(=O)O)NC(=O)[C@@H](NC(=O)[C@H](Cc1ccccc1)NC(=O)[C@H](CCCN)NC(=O)C(C)(C)NC(=O)[C@H](CCC(N)=O)NC(=O)[C@H](C)NC(=O)[C@H](CCC(N)=O)NC(=O)[C@H](CCCN)NC(=O)[C@H](CC(=O)O)NC(=O)[C@H](CC(C)C)NC(=O)[C@](C)(CC(C)C)NC(=O)[C@@H](NC(=O)C(C)(C)NC(=O)[C@H](Cc1ccncc1)NC(=O)[C@H](CC(=O)O)NC(=O)[C@H](CO)NC(=O)[C@@H](NC(=O)[C@](C)(Cc1ccccc1F)NC(=O)[C@@H](NC(=O)CNC(=O)[C@H](CCC(=O)O)NC(=O)C(C)(C)NC(=O)[C@@H](N)Cc1ccc(O)cc1)[C@@H](C)O)[C@@H](C)O)[C@@H](C)CC)[C@@H](C)CC)C(=O)N[C@@H](CCCCNC(=O)CCCCCCCNC(=O)COCCOCCNC(=O)CC[C@H](NC(=O)CCCCCCCCCOc1ccc(C(=O)O)cc1)C(=O)O)C(=O)NCC(=O)NCC(=O)N1CCC[C@H]1C(=O)N[C@@H](CO)C(=O)N[C@@H](CO)C(=O)NCC(=O)N[C@@H](C)C(=O)N1CCC[C@H]1C(=O)N1CCC[C@H]1C(=O)N1CCC[C@H]1C(=O)N[C@@H](CO)C(N)=O [Example 456]							> 9950 nM	> 9950 nM	116%	0.341 nM	94.7%	0.0236 nM	112%	0.878 nM		
CC[C@H](C)[C@H](NC(=O)[C@H](CC(C)C)NC(=O)[C@](C)(Cc1ccc(O)cc1)NC(=O)[C@H](CCCCNC(=O)COCCOCCNC(=O)CC[C@H](NC(=O)CCCCCCCCCCCCC(=O)O)C(=O)O)NC(=O)[C@@H](NC(=O)[C@H](Cc1ccccc1)NC(=O)[C@H](CCCN)NC(=O)C(C)(C)NC(=O)[C@H](CCC(N)=O)NC(=O)[C@H](C)NC(=O)[C@H](CCC(N)=O)NC(=O)[C@H](CCCN)NC(=O)[C@H](CC(=O)O)NC(=O)[C@H](CC(C)C)NC(=O)[C@](C)(CC(C)C)NC(=O)[C@@H](NC(=O)C(C)(C)NC(=O)[C@H](Cc1ccncc1)NC(=O)[C@H](CC(=O)O)NC(=O)[C@H](CO)NC(=O)[C@@H](NC(=O)[C@](C)(Cc1ccccc1F)NC(=O)[C@@H](NC(=O)CNC(=O)[C@H](CCC(=O)O)NC(=O)C(C)(C)NC(=O)[C@@H](N)Cc1ccc(O)cc1)[C@@H](C)O)[C@@H](C)O)[C@@H](C)CC)[C@@H](C)CC)C(=O)N[C@@H](CCCCNC(=O)COCCOCCNC(=O)CC[C@H](NC(=O)CCCCCCCCCCCCC(=O)O)C(=O)O)C(=O)NCC(=O)NCC(=O)N1CCC[C@H]1C(=O)N[C@@H](CO)C(=O)N[C@@H](CO)C(=O)NCC(=O)N[C@@H](C)C(=O)N1CCC[C@H]1C(=O)N1CCC[C@H]1C(=O)N1CCC[C@H]1C(=O)N[C@@H](CO)C(N)=O [Example 459]	> 9950 nM	> 9950 nM	120%	0.18 nM	89.3%	0.013 nM										
CC[C@H](C)[C@H](NC(=O)[C@H](CC(C)C)NC(=O)[C@](C)(Cc1ccc(O)cc1)NC(=O)[C@H](CCCCNC(=O)CCOCCOCCOCCOCCOCCNC(=O)CC[C@H](NC(=O)CCCCCCCCCCCCC(=O)O)C(=O)O)NC(=O)[C@@H](NC(=O)[C@H](Cc1ccccc1)NC(=O)[C@H](CCCN)NC(=O)C(C)(C)NC(=O)[C@H](CCC(N)=O)NC(=O)[C@H](C)NC(=O)[C@H](CCC(N)=O)NC(=O)[C@H](CCCN)NC(=O)[C@H](CC(=O)O)NC(=O)[C@H](CC(C)C)NC(=O)[C@](C)(CC(C)C)NC(=O)[C@@H](NC(=O)C(C)(C)NC(=O)[C@H](Cc1ccncc1)NC(=O)[C@H](CC(=O)O)NC(=O)[C@H](CO)NC(=O)[C@@H](NC(=O)[C@](C)(Cc1ccccc1F)NC(=O)[C@@H](NC(=O)CNC(=O)[C@H](CCC(=O)O)NC(=O)C(C)(C)NC(=O)[C@@H](N)Cc1ccc(O)cc1)[C@@H](C)O)[C@@H](C)O)[C@@H](C)CC)[C@@H](C)CC)C(=O)N[C@@H](CCCCNC(=O)CCOCCOCCOCCOCCOCCNC(=O)CC[C@H](NC(=O)CCCCCCCCCCCCC(=O)O)C(=O)O)C(=O)NCC(=O)NCC(=O)N1CCC[C@H]1C(=O)N[C@@H](CO)C(=O)N[C@@H](CO)C(=O)NCC(=O)N[C@@H](C)C(=O)N1CCC[C@H]1C(=O)N1CCC[C@H]1C(=O)N1CCC[C@H]1C(=O)N[C@@H](CO)C(N)=O [Example 467]	> 10100 nM	> 10100 nM	110%	0.131 nM	88.4%	0.0113 nM									97.9%	0.35 nM
